In patent publication US20250388575A1, “HETEROBIFUNCTIONAL COMPOUNDS AND METHODS OF TREATING DISEASE” (Halda Therapeutics OpCo, Inc., priority 2022, published 2025) one finds GI50 data, which are given here for 16 molecules.

The subject of assay [1] is T-Rex 293 cell line SC3 cells having increased expression of androgen receptor protein. As to the kind of experiment: Cellular growth inhibition, T-Rex 293 SC3 cells with increased androgen receptor expression (doxycycline), CellTiter-Glo. It counts as cell-based. The procedure: (§1) The following types of cells were prepared for this experiment: (i) a T-Rex 293 cell line having increased expression of androgen receptor protein due to exposure to doxycycline and (ii) a T-Rex 293 cell line lacking increased expression of androgen receptor protein. Ability of the test compounds to inhibit proliferation of the foregoing cell types was evaluated according to the procedures set forth below.
(§2) The doxycycline-inducible androgen receptor protein expressing cell line was established using the following protocol: T-Rex 293 cells were purchased from Invitrogen (Cat #R71007) and transfected using Lipofectamine 2000 with the wild-type androgen receptor protein sequence cloned into the pcDNA4/TO vector. Transfected cells were selected using 400 μg/mL Zeocin (Invitrogen Cat #R25001). Following selection, single clones were raised and maintained in Dulbecco's Modified Eagle Medium (DMEM) supplemented with 10% w/w Tetracycline-free fetal bovine serum (FBS) and 250 μg/mL Zeocin. Clones were analyzed for expression of androgen receptor protein in the presence and absence of 10 ng/ml doxycycline (Sigma Cat #D9891), and a single doxycycline-inducible clone (hereinafter “SC3”) was selected for use in downstream assays.
(§3) The SC3 cells were seeded on poly-D-lysine coated, black clear-bottom 384-well plates at 2500/well, in 25 μL Phenol Red Free Dulbecco's Modified Eagle Medium (DMEM) supplemented with 10% w/w charcoal-dextran treated fetal bovine serum (FBS) and 1% w/w pen-strep, with or without 10 ng/mL doxycycline. Pen-Strep is a commercially available mixture of penicillin G and streptomycin, which is used in mammalian cell culture media to prevent bacterial contamination. Phenol Red Free Dulbecco's Modified Eagle Medium (DMEM) supplemented with 10% w/w charcoal-dextran treated fetal bovine serum (FBS) and 1% w/w pen-strep, with or without 10 ng/mL doxycycline is herein referred to as Treatment Medium. Following seeding of cells in the plates, the plates were spun at 300×g for 30 seconds, then equilibrated to room temperature for 30 minutes, and then deposited in a humidified tissue culture incubator maintained at 37° C. with 5% CO2.
(§4) At 24 hours after seeding of the cells, dilutions of test compound were prepared in DMSO and dissolved in Treatment Medium, to achieve a final DMSO concentration of 0.5% w/w, thereby providing the Test Compound Solution. A 25 μL aliquot of the Test Compound Solution was added to cells in the well plates. An equal volume of a solution containing DMSO and Treatment Medium was used as a negative control. Following treatment of cells with Test Compound Solution or said equal volume of a solution containing DMSO and Treatment Medium, the plates were spun at 300×g for 30 seconds, and then left in an incubator for 72 hours.
(§5) At the end of the treatment duration, cell viability was quantified with CellTiter-Glo 2.0 reagent (Promega Cat #G9243). For this purpose, plates were equilibrated to room temperature for 30 minutes, and then 25 μL of CellTiter-Glo 2.0 reagent was added to cells in the plate wells. Plates were then agitated on a shaker for two minutes at 500 rpm and subsequently incubated at room temperature for 10 minutes. Following incubation, the plates were spun at 3000×g for 30 seconds, then sealed with an optical adhesive cover, and luminescence readings were measured with an EnVision Plate Reader.
(§6) Data was normalized using zero luminescence for baseline. A four-parameter non-linear regression curve fit was applied to dose-response data in GraphPad Prism data analysis software to determine the half-maximal growth inhibitory concentration (GI50) for each test compound.

Assay [2] has as its system T-Rex 293 cell line SC3 cells lacking increased expression of androgen receptor protein. As to the kind of experiment: Cellular growth inhibition, T-Rex 293 SC3 cells lacking increased androgen receptor expression (no doxycycline), CellTiter-Glo. The assay is classed as cell-based. The procedure:
as §1, §2, §3, §4, §5, §6
For orientation: Cellular ATP, detected with luciferase, serves as a proxy for viable cell number.

The next assay concerns VCaP cells. As to the kind of experiment: Cellular growth inhibition assay for VCaP cells, CellTiter-Glo. The assay is classed as cell-based, human. As to the method: VCaP cells were purchased from American Type Cell Culture (ATCC Cat #CRL2876) and then seeded on poly-D-lysine coated, black clear-bottom 384-well plates at 5000/well in 25 μL Dulbecco's Modified Eagle Medium (DMEM) supplemented with 10% w/w Fetal bovine serum (FBS) and 1% w/w Pen-Strep. Pen-Strep is a commercially available mixture of penicillin G and streptomycin, which is used in mammalian cell culture media to prevent bacterial contamination. Dulbecco's Modified Eagle Medium (DMEM) supplemented with 10% w/w fetal bovine serum (FBS) and 1% w/w Pen-Strep is herein referred to as Treatment Medium. Following seeding of cells in the plates, the plates were spun at 300×g for 30 seconds, then equilibrated to room temperature for 30 minutes, and then deposited in a humidified tissue culture incubator maintained at 37° C. with 5% CO2.
as §4, §5, §6

Setting [3] is: T-Rex 293 SC3 cells with increased androgen receptor expression (exposed to 10 ng/mL doxycycline), 72 hours, CellTiter-Glo, read-out: GI50.
[4] abbreviates: T-Rex 293 SC3 cells lacking increased androgen receptor expression (not exposed to doxycycline), 72 hours, CellTiter-Glo, read-out: GI50.
The mark [5] stands for this setting: VCaP cells, 72 hours, CellTiter-Glo, read-out: GI50.
[6] abbreviates: Homo sapiens, VCaP cells, 72 hours, CellTiter-Glo, read-out: GI50.

Where two headings read alike, the source gives them in different places. A value given as a limit tells only on which side of the number the result lay.

As a reminder, the GI50 is the concentration that inhibits growth by half.

`CCS(=O)(=O)Nc1ccc(Oc2cccc(OCCOCCOCCOCCOCCOCCOCCOC3CCN(c4ccc(C(=O)N[C@H]5CC[C@H](Oc6ccc(C#N)c(Cl)c6)CC5)nn4)CC3)c2)c(-c2cn(C)c(=O)c3[nH]ccc23)c1` [I-4, N-[4-(3-chloro-4-cyano-phenoxy)cyclohexyl]-6-[4-[2-[2-[2-[2-[2-[2-[2-[3-[4-(ethylsulfonylamino)-2-(6-methyl-7-oxo-1H-pyrrolo[2,3-c]pyridin-4-yl)phenoxy]phenoxy]ethoxy]ethoxy]ethoxy]ethoxy]ethoxy]ethoxy]ethoxy]-1-piperidyl]pyridazine-3-carboxamide]: the GI50 was below 500 nM in assay [1] (setting [3]) and 1500 to 3000 nM in assay [2] (setting [4]).
`CCS(=O)(=O)Nc1ccc(Oc2ccc(OCCOC3CCN(c4ccc(C(=O)N[C@H]5CC[C@H](Oc6ccc(C#N)c(Cl)c6)CC5)nn4)CC3)cc2)c(-c2cn(C)c(=O)c3[nH]ccc23)c1` [I-34]: the GI50 (in assay [1] (setting [3]); in assay [2] (setting [4]); in the assay on VCaP cells (setting [5])) was below 500 nM throughout.
Consider `Cn1cc(-c2cc(S(=O)(=O)CCCN3CCN(c4ccc(C(=O)N[C@H]5CC[C@H](Oc6ccc(C#N)c(Cl)c6)CC5)nn4)CC3)ccc2Oc2ccc(F)cc2F)c2cc[nH]c2c1=O` [I-93], for which the figures for the GI50 (in assay [1] (setting [3]); in assay [2] (setting [4]); in the assay with VCaP cells (setting [5])) were below 500 nM, above 3000 nM and below 500 nM, respectively.
`Cn1cc(-c2cc(NS(=O)(=O)C(F)(F)F)ccc2Oc2cccc(OCCOC3CCN(c4ccc(C(=O)N[C@H]5CC[C@H](Oc6ccc(C#N)c(Cl)c6)CC5)nn4)CC3)c2F)c2cc[nH]c2c1=O` [I-24]: the GI50 in assay [1] (setting [3]) is 500 to 1500 nM; in assay [2] (setting [4]) it was above 3000 nM; in the assay on VCaP cells (setting [6]), 1500 to 3000 nM.
As for `CCS(=O)(=O)Nc1ccc(Oc2cccc(CCCOC3CCN(c4ccc(C(=O)N[C@H]5CC[C@H](Oc6ccc(C#N)c(Cl)c6)CC5)nn4)CC3)c2F)c(-c2cn(C)c(=O)c3[nH]ccc23)c1` [I-37, N-[4-(3-chloro-4-cyano-phenoxy)cyclohexyl]-6-[4-[3-[3-[4-(ethylsulfonylamino)-2-(6-methyl-7-oxo-1H-pyrrolo[2,3-c]pyridin-4-yl)phenoxy]-2-fluoro-phenyl]propoxy]-1-piperidyl]pyridazine-3-carboxamide], the GI50 is below 500 nM in assay [1] (72 h); below 500 nM in assay [2] (72 h); below 500 nM in the assay on VCaP cells (Homo sapiens, VCaP, 72 h).
As for `Cn1cc(-c2cc(Br)ccc2Oc2ccc(CCC3CCN(c4ccc(C(=O)NC5CCC(Oc6ccc(C#N)c(Cl)c6)CC5)nn4)CC3)cc2)c2cc[nH]c2c1=O` (stereo not drawn) [I-241, 6-[4-[2-[4-[4-bromo-2-(6-methyl-7-oxo-1H-pyrrolo[2,3-c]pyridin-4-yl)phenoxy]phenyl]ethyl]-1-piperidyl]-N-[4-(3-chloro-4-cyano-phenoxy)cyclohexyl]pyridazine-3-carboxamide], the values for the GI50 (in assay [1] (setting [3]); in assay [2] (setting [4]); in the assay on VCaP cells (setting [6])) were below 500 nM, above 3000 nM and below 500 nM, respectively.
With `Cn1cc(-c2cc(NC(=O)CCC3CCN(c4ccc(C(=O)NC5CCC(Oc6ccc(C#N)c(Cl)c6)CC5)nn4)CC3)ccc2Oc2ccc(F)cc2F)c2cc[nH]c2c1=O` (stereo not drawn) [I-212, N-[4-(3-chloro-4-cyano-phenoxy)cyclohexyl]-6-[4-[3-[4-(2,4-difluorophenoxy)-3-(6-methyl-7-oxo-1H-pyrrolo[2,3-c]pyridin-4-yl)anilino]-3-oxo-propyl]-1-piperidyl]pyridazine-3-carboxamide], the GI50 in assay [1] (setting [3]) is below 500 nM; in assay [2] (setting [4]) it was above 3000 nM; in the assay with VCaP cells (setting [6]), above 3000 nM.
Consider `Cn1cc(-c2ccccc2Oc2ccc(OCC3CCN(c4ccc(C(=O)N[C@H]5CC[C@H](Oc6ccc(C#N)c(Cl)c6)CC5)nn4)CC3)cc2)c2cc[nH]c2c1=O` [I-255, N-[4-(3-chloro-4-cyano-phenoxy)cyclohexyl]-6-[4-[[4-[2-(6-methyl-7-oxo-1H-pyrrolo[2,3-c]pyridin-4-yl)phenoxy]phenoxy]methyl]-1-piperidyl]pyridazine-3-carboxamide], for which the GI50 was below 500 nM in assay [1] (setting [3]), above 3000 nM in assay [2] (setting [4]) and below 500 nM with VCaP cells (setting [6]).
Consider `Cn1cc(-c2cc(C(C)(C)O)ccc2Oc2ccc(CC3CC4(C3)CN(c3ccc(C(=O)N[C@H]5CC[C@H](Oc6ccc(C#N)c(Cl)c6)CC5)nn3)C4)cc2)c2cc[nH]c2c1=O` [I-118], for which the 50% growth inhibitory concentration (GI50) (in assay [1] (setting [3]); in assay [2] (setting [4]); with VCaP cells (setting [6])) was below 500 nM throughout.
With `Cn1cc(-c2cc(CS(C)(=O)=O)ccc2Oc2ccc(CCC3CCN(c4ccc(C(=O)NC5CCC(Oc6ccc(C#N)c(Cl)c6)CC5)nn4)CC3)cc2)c2cc[nH]c2c1=O` (stereo not drawn) [I-237, N-[4-(3-chloro-4-cyano-phenoxy)cyclohexyl]-6-[4-[2-[4-[2-(6-methyl-7-oxo-1H-pyrrolo[2,3-c]pyridin-4-yl)-4-(methylsulfonylmethyl)phenoxy]phenyl]ethyl]-1-piperidyl]pyridazine-3-carboxamide], the GI50 (in assay [1] (setting [3]); in assay [2] (setting [4]); in the assay with VCaP cells (setting [6])) was below 500 nM in each case.
`CCS(=O)(=O)c1ccc(Oc2ccc(CCN3CC4(C3)CN(c3ccc(C(=O)N[C@H]5CC[C@H](Oc6ccc(C#N)c(Cl)c6)CC5)nn3)C4)cc2)c(-c2cn(C)c(=O)c3[nH]ccc23)c1` [I-63]: the GI50 (in assay [1] (setting [3]); in assay [2] (setting [4]); in the assay on VCaP cells (setting [5])) was below 500 nM in each case.
Regarding `CCS(=O)(=O)Nc1ccc(Oc2cccc(CCOC3CCN(c4ccc(C(=O)N[C@H]5CC[C@H](Oc6ccc(C#N)c(Cl)c6)CC5)nn4)CC3)c2F)c(-c2cn(C)c(=O)c3[nH]ccc23)c1` [I-11], the GI50 (in assay [1] (setting [3]); in assay [2] (setting [4]); in the assay on VCaP cells (setting [6])) was below 500 nM throughout.
In the case of `CCS(=O)(=O)c1ccc(Oc2cccc(CCCN3CCN(c4ccc(C(=O)N[C@H]5CC[C@H](Oc6ccc(C#N)c(Cl)c6)CC5)nn4)CC3)c2F)c(-c2cn(C)c(=O)c3[nH]ccc23)c1` [I-62], the GI50 (in assay [1] (setting [3]); in assay [2] (setting [4]); in the assay on VCaP cells (setting [5])) was below 500 nM in each case.
For `CCS(=O)(=O)c1ccc(Oc2cccc(CCCOC3CCN(c4ccc(C(=O)N[C@H]5CC[C@H](Oc6ccc(C#N)c(Cl)c6)CC5)nn4)CC3)c2F)c(-c2cn(C)c(=O)c3[nH]ccc23)c1` [I-27], the GI50 (in assay [1] (setting [3]); in assay [2] (setting [4]); in the assay with VCaP cells (setting [6])) was below 500 nM each time.
As for `CCS(=O)(=O)Nc1ccc(Oc2cccc(OCCOC3CCN(c4cnc(C(=O)N[C@H]5CC[C@H](Oc6ccc(C#N)c(Cl)c6)CC5)cn4)CC3)c2F)c(-c2cn(C)c(=O)c3[nH]ccc23)c1` [I-31], the 50% growth inhibitory concentration (GI50) (in assay [1] (setting [3]); in assay [2] (setting [4]); in the assay with VCaP cells (setting [6])) was below 500 nM in each case.
Turning to `Cn1cc(-c2cc(C(C)(C)O)ccc2Oc2ccc(CCCCC3CCN(c4ccc(C(=O)N[C@H]5CC[C@H](Oc6ccc(C#N)c(Cl)c6)CC5)nn4)CC3)cc2)c2cc[nH]c2c1=O` [I-125], the GI50 in the assay on VCaP cells (setting [5]) is below 500 nM.
